pIC50: −log10 of the molar value. Entries after “also recorded” stand apart in the source; their conditions may differ. Like-named read-outs stand apart in the source and are kept apart here. Non-standard residues stand in square brackets, D forms with d. Residues, ends and D or L forms follow the SMILES beside them. No end group written: not given here. *: point of attachment. FITC = O=C1OC2(c3ccc(O)cc3Oc3cc(O)ccc32)c2ccc(NC(=S)*)cc21
Columns and labels:
[1] = system: U937 monocytic lymphoma cells; assay: Cytotoxicity/apoptosis of R9-linked caPCNA peptides in U937 cells by flow cytometry; assay type: cell-based; conditions: 24 hours; for % cancer cell death: 30 μM of peptide, flow cytometry; for cytotoxic activity / apoptosis: R9 up to 100 μM, caPeptide up to 200 μM
Experimental: First, it was tested whether or not the R9 sequence alone had any cytotoxic effect in U937 cells. The U937 cells were treated with up to 100 μM of the R9 sequence for 24 hours.
Once it was established that the R9 sequence promoted cellular uptake of the peptide, increasing amounts of R9-caPep were added to U937 cells to determine if the peptide's uptake would have any cytotoxic effect.
To verify that the cytotoxicity of the R9-caPep was due to the PCNA peptide sequence itself, a scrambled peptide using the same eight amino acids, R9-Scrambled, was prepared (Table 3).
The cancer associated epitope of PCNA is also part of the flexible IDCL region of PCNA. This region of PCNA is considered to have a disordered structure. Disordered regions in proteins are usually associated with protein-to-protein interaction sites. […] To determine which amino acids in the R9-caPep sequence are necessary for binding of the peptide to these proteins, peptide constructs were generated that mutated each amino acid individually to an alanine (Table 3). Each alanine mutant peptide of caPCNA was used to treat U937 cells for 24 hours. An amino acid that is important to protein binding would presumably show decreased cell cytotoxicity when it is substituted with an alanine. Those amino acids which are not critical for binding could be anticipated to show a cytotoxic level similar to that of the unsubstituted peptide. For a comparison of the potential cytotoxic effect of each of the alanine substituted R9-linked caPeptides, U937 cells were treated with 30 μM of peptide. […] It was observed that peptides containing an alanine substituted at position aa126 or aa133 show little cytotoxic activity and therefore were likely important for the peptide's activity.

U937 cells [2] = assay: Cellular uptake and nuclear localization by fluorescence microscopy; assay type: cell-based; conditions: 10 μM, 24 hours, DAPI overlay
Experimental: To test cellular uptake and nuclear localization of R9-caPep, an N-terminal fluorescein isothiocyanate (FITC) residue was attached to allow microscopic visualization of the peptide's cellular location. The U937 cells were treated with 10 μM of FITC-R9-caPep for 24 hours. The cells were then collected onto a poly-L-lysine coated slide by cytospin and mounted with a media containing the DNA staining dye 4′-6-Diamidino-2-phenylindole (DAPI), which complexes with double stranded DNA and indicates the location of the nucleus. A Leica DM500 fluorescent microscope was used to visualize the staining.

[3] = system: HCC1937 cells lacking BRCA1; assay: MTT growth inhibition assay, HCC1937 cells lacking BRCA1; assay type: cell-based; conditions: for efficacy in MTT assay compared with the other peptides: HCC1937 and HCC1937+wild-type BRCA1 cells, 24 hours
Experimental: MTT [3-(4,5-dimethylthiazol-2-yl)-2,5-diphenyltetrazolium bromide] assays were conducted with caPeptides at a variety of time points both alone and in combination with a DNA damaging agent e.g., cisplatin in HCC1937 and HCC1937+wild-type BRCA1 cells. The MTT assay is based on the ability of a mitochondrial dehydrogenase enzyme from viable cells to cleave the tetrazolium rings of the pale yellow MTT dye and form dark blue formazan crystals. These formazan crystals are largely impermeable to cell membranes and thus accumulate within healthy cells. Solubilization of the cells by the addition of a detergent results in the liberation and solubilization of the crystals. The number of proliferating cells is directly proportional to the level of formazan product created. The color can then be quantified using a simple colorimetric assay. The results are read on a multiwall scanning spectrophotometer (ELISA reader). The peptides used in these experiments including caPeptide, Q131A ([…] (SEQ ID NO: 5)), and P129A ([…] (SEQ ID NO: 3)) were ordered and obtained from Anaspec (Fremont, Calif.). caPeptide was dissolved in sterile 1× PBS solution to create a 1.5 mM stock concentration. caPeptides with alanine substitutions (e.g., P129A (SEQ ID NO: 3) and Q131A (SEQ ID NO: 5)) were dissolved in sterile 1×PBS solution to create 1.0 mM stock solutions.
MTT assays: The efficacy of caPeptides were tested using the MTT assays: HCC1937 and HCC137+wildtype BRCA1 cells were grown in DMEM 1× (supplemented with 10% fetal bovine serum and 5% penicillin/streptomycin) and were plated at a densities of 5.5×10^3 or 7×10^3, respectively, in 96 well plates (100 μL total volume per well) and allowed to attach overnight in a 37° C. incubator (5% CO2). Then, caPeptide stock solution was diluted to final working concentrations in DMEM 1× (10% fetal bovine serum and 5% penicillin/streptomycin) of 150 μM, 100 μM, 75 μM, 50 μM, and 25 μM. Media was removed from cells and replaced with media containing caPeptide at various concentrations (200 μL total volume per well). Cells were cultured with caPeptide-containing media for 24, 48 or 72 hours. At the appropriate treatment timepoint, 20 μL MTT (5 mg/mL in PBS) reagent was added to each well and plates were incubated for an additional 4 hours. Media/dye solution was then aspirated and 200 μL DMSO was added to each well. Plates were rocked at room temperature for five minutes to dissolve crystals and transferred to an ELISA plate reader. Absorbance was measured at 550 nm. The extent to which caPeptides inhibited cell proliferation was calculated as a percentage of the absorbance in each well containing caPeptide relative to wells containing no caPeptide (negative control) for both HCC1937 and HCC1937+wild-type BRCA1 cells. […]

[4] = system: HCC1937+wild-type BRCA1 cells; assay: MTT growth inhibition assay, HCC1937+wild-type BRCA1 cells; assay type: cell-based
Experimental: As a genetically matched control, wild-type BRCA1 has been transduced into HCC1937 cells (referred to as HCC1937+wild-type BRCA1). HCC1937+wild-type BRCA1 cells were selected for maintenance of the vector using 1 μg/mL puromycin. All cells in these assays were used at passage numbers <25.
MTT [3-(4,5-dimethylthiazol-2-yl)-2,5-diphenyltetrazolium bromide] assays were conducted with caPeptides at a variety of time points both alone and in combination with a DNA damaging agent e.g., cisplatin in HCC1937 and HCC1937+wild-type BRCA1 cells. […] The color can then be quantified using a simple colorimetric assay. The results are read on a multiwall scanning spectrophotometer (ELISA reader). […]
MTT assays: The efficacy of caPeptides were tested using the MTT assays: HCC1937 and HCC137+wildtype BRCA1 cells were grown in DMEM 1× (supplemented with 10% fetal bovine serum and 5% penicillin/streptomycin) and were plated at a densities of 5.5×10^3 or 7×10^3, respectively, in 96 well plates (100 μL total volume per well) and allowed to attach overnight in a 37° C. incubator (5% CO2). […] Plates were rocked at room temperature for five minutes to dissolve crystals and transferred to an ELISA plate reader. Absorbance was measured at 550 nm. […]

U937 cells [5] = conditions: 100 nM of doxorubicin alone
U937 cells [6] = assay: cells; conditions: Homo sapiens, U-937, 24 h
MCF 7 (breast cancer) = assay: Cell death by flow cytometry in malignant breast cells; assay type: cell-based; conditions: 50 μM, 48 hours
Experimental: The R9-caPeptide was evaluated for cytotoxic effects in non-malignant (MCF 10A) and malignant (MCF 7) breast cells (Table 6). The cells were treated with 50 μM R9-caPeptide for 48 hours and the extent of cell death was evaluated by flow cytometry. […] The significant level of cytotoxicity in breast cancer cells is likely due to enhanced binding interaction of caPeptide with specific DNA repair proteins in these cells, as indicated for example by the observed preferential binding of caPCNA for XPG protein, leading to an inhibition of DNA repair in these cells, and ultimately cell death.

For RRRRRRRRRCCLGIPEAEY [A6-sub. Peptide], the “% cancer cell death” value [1] was 93 ± 7%.

In the case of RRRRRRRRRCCAGIPEQEY [A1-sub. Peptide], the “% cancer cell death” value [1] was 8 ± 9%.

With “FITC-RRRRRRRRRCCLGIPEQEY ({FITC}-[dR][dR][dR][dR][dR][dR][dR][dR][dR]CCLGIPEQEY; cysteine pairing not given here) [FITC-R9-caPep, R9-caPep with an N-terminal fluorescein isothiocyanate (FITC) residue]” the “cellular uptake and nuclear localization” value (U937 cells [2]) was “internalized by the cells and was accessible to the nucleus”.

With LGIPEAEY [Q131A] the “efficacy in MTT assay compared with the other peptides” value [3] was “enhanced efficacy in comparison to wild-type peptides; also recorded: more effective of these peptides tested”.

N.N.[Cl][Pt][Cl] [cisplatin, reference compound] was tested, and the pIC50 ([3]; HCC1937 cells lacking BRCA1, with R9-PCNA peptide 60 μM, read-out: IC50 value for R9-PCNA peptide (60 μM)+cisplatin) was ~4.70, the “sensitivity of the cells to cisplatin” value ([3]; HCC1937 cells, cisplatin alone) was “relatively resistant” and the “sensitivity of the cells to cisplatin” value ([4]; HCC1937+wild-type BRCA1 cells, cisplatin alone) was “relatively resistant”. For the same molecule, the pIC50 ([4]; HCC1937 cells with BRCA1, with R9-PCNA peptide 60 μM, read-out: IC50 value for R9-PCNA peptide (60 μM)+cisplatin) was ~4.00.

RRRRRRRRRCCLGIPEQEA [A8-sub. Peptide] was tested, and the “% cancer cell death” value [1] was 7 ± 6%.

RRRRRRRRRCCLGIPEQAY [A7-sub. Peptide] was tested, and the “% cancer cell death” value [1] was 88 ± 4%.

RRRRRRRRRCCLGAPEQEY [A3-sub. Peptide] was tested, and the “% cancer cell death” value [1] was 21 ± 12%.

With LGIAEQEY [P129A] the “efficacy in MTT assay compared with the other peptides” value [3] was “enhanced efficacy in comparison to wild-type peptides”.

Molecule COc1cccc2c1C(=O)c1c(O)c3c(c(O)c1C2=O)C[C@@](O)(C(=O)CO)C[C@@H]3O[C@H]1C[C@H](N)[C@H](O)[C@H](C)O1 [doxorubicin] has a cell death (U937 cells [5]) of 30%, a pIC50 (U937 cells [6]; read-out: IC50 of doxorubicin, U937 cells, 24 hours, doxorubicin alone) of ~6.85 and a pIC50 (U937 cells [6]; read-out: IC50 of doxorubicin, U937 cells, 24 hours, with 25 μM of R9-caPep) of ~6.96.

In the case of CC[C@H](C)[C@H](NC(=O)CNC(=O)[C@H](CC(C)C)NC(=O)[C@H](CS)NC(=O)[C@H](CS)NC(=O)[C@@H](CCCNC(=N)N)NC(=O)[C@@H](CCCNC(=N)N)NC(=O)[C@@H](CCCNC(=N)N)NC(=O)[C@@H](CCCNC(=N)N)NC(=O)[C@@H](CCCNC(=N)N)NC(=O)[C@@H](CCCNC(=N)N)NC(=O)[C@@H](CCCNC(=N)N)NC(=O)[C@@H](CCCNC(=N)N)NC(=O)[C@H](N)CCCNC(=N)N)C(=O)N1CCC[C@H]1C(=O)N[C@@H](CCC(=O)O)C(=O)N[C@@H](CCC(N)=O)C(=O)N[C@@H](CCC(=O)O)C(=O)N[C@@H](Cc1ccc(O)cc1)C(=O)O [R9-caPep], the “cytotoxicity for malignant breast cells (MCF7) relative to non-malignant breast cells (MCF10A)” value (MCF 7 (breast cancer)) was “approximately five times more cytotoxic”.

In the case of RRRRRRRRR [R9, reference compound], the “cytotoxic activity / apoptosis” value [1] was “did not promote apoptosis; also recorded: did not cause an increase apoptosis”.

RRRRRRRRRCCLGIPAQEY [A5-sub. Peptide] was tested, and the “% cancer cell death” value [1] was 45 ± 14%.

CC[C@H](C)[C@H](NC(=O)CNC(=O)[C@@H](N)CC(C)C)C(=O)N1CCC[C@H]1C(=O)N[C@@H](CCC(=O)O)C(=O)N[C@@H](CCC(N)=O)C(=O)N[C@@H](CCC(=O)O)C(=O)N[C@@H](Cc1ccc(O)cc1)C(=O)O [caPeptide] (H-LGIPEQEY-OH) was tested, and the “cytotoxic activity / apoptosis” value [1] was “did not have any cytotoxic activity; also recorded: no increase in apoptosis”.

RRRRRRRRRCCLGIAEQEY [A4-sub. Peptide] was tested, and the “% cancer cell death” value [1] was 80 ± 7%.

RRRRRRRRRCCLAIPEQEY [A2-sub. Peptide] was tested, and the “% cancer cell death” value [1] was 47 ± 13%.

Source: patent publication US8278278B2, “Cell proliferation reducing cancer specific PCNA peptides” (Indiana University Research and Technology Corporation, priority 2008, dated 2012)
